The text below walks through data of PubChem BioAssay AID230 (DTP/NCI, 2004).

The test system of the assay is C3H/He mice, Gardner lymphosarcoma 6C3HED ip, survival T/C. In words: NCI In Vivo Anticancer Drug Screen. Data for tumor model Lymphosarcoma Gardner 6C3HED (intraperitoneal) in C3H/He mice. The settings on record: higher = longer survival. The procedure:
The antitumor activity of compounds was measured in mice bearing transplantable tumors. Survival or tumor size were measured and the results are expressed as the measurement made in the treated group (T) divided by the measurement made in the vehicle treated control group (C). The tumor model used in this assay is Lymphosarcoma Gardner 6C3HED (intraperitoneal) in C3H/He mice

Where [1] appears, read: endpoint: survival time, mean or median, dose: 4.0 mg/kg/injection, schedule: Q01DX010 (ip), vehicle: saline.
Where [2] appears, read: endpoint: survival time, mean or median, dose: 8.0 mg/kg/injection, schedule: Q01DX010 (ip), vehicle: saline.
[3] abbreviates: endpoint: survival time, mean or median, dose: 16.0 mg/kg/injection, schedule: Q01DX010 (ip), vehicle: saline.
Setting [4] is: endpoint: survival time, mean or median, dose: 15.0 mg/kg/injection, schedule: Q01DX010 (ip), vehicle: saline.
The mark [5] stands for this setting: endpoint: survival time, mean or median, dose: 125.0 mg/kg/injection, schedule: Q01DX010 (ip), vehicle: saline.
Where [6] appears, read: endpoint: survival time, mean or median, dose: 3.13 mg/kg/injection, schedule: Q01DX010 (ip), vehicle: saline.
[7] abbreviates: endpoint: survival time, mean or median, dose: 0.13 mg/kg/injection, schedule: Q01DX010 (ip), vehicle: saline.
Setting [8] is: endpoint: survival time, mean or median, dose: 0.25 mg/kg/injection, schedule: Q01DX010 (ip), vehicle: saline.
Setting [9] is: endpoint: survival time, mean or median, dose: 1.0 mg/kg/injection, schedule: Q01DX010 (ip), vehicle: saline.
Setting [10] is: endpoint: survival time, mean or median, dose: 2.0 mg/kg/injection, schedule: Q01DX010 (ip), vehicle: saline.
Where [11] appears, read: endpoint: survival time, mean or median, dose: 1.25 mg/kg/injection, schedule: Q01DX010 (ip), vehicle: saline.
Where [12] appears, read: endpoint: survival time, mean or median, dose: 2.5 mg/kg/injection, schedule: Q01DX010 (ip), vehicle: saline.
[13] abbreviates: endpoint: survival time, mean or median, dose: 5.0 mg/kg/injection, schedule: Q01DX010 (ip), vehicle: saline.
Where [14] appears, read: endpoint: survival time, mean or median, dose: 10.0 mg/kg/injection, schedule: Q01DX010 (ip), vehicle: saline.
Where [15] appears, read: endpoint: survival time, mean or median, dose: 0.5 mg/kg/injection, schedule: Q01DX010 (ip), vehicle: saline.
Where [16] appears, read: endpoint: survival time, mean or median, dose: 20.0 mg/kg/injection, schedule: Q01DX010 (ip), vehicle: saline.
The mark [17] stands for this setting: endpoint: survival time, mean or median, dose: 25.0 mg/kg/injection, schedule: Q01DX010 (ip), vehicle: saline.
Setting [18] is: endpoint: survival time, mean or median, dose: 50.0 mg/kg/injection, schedule: Q01DX010 (ip), vehicle: saline.
Where [19] appears, read: endpoint: survival time, mean or median, dose: 40.0 mg/kg/injection, schedule: Q01DX010 (ip), vehicle: saline.

Each structure is given as a SMILES string. “And” between values parts separate entries of the source, which are not always exact repeats. Equal entries are not always repeated. Toxic doses and inconclusive results are not listed.

For `CCCCn1cnc2c(=S)nc[nH]c21`, the T/C runs as follows: under setting [1], 100 % of control; under setting [2], 93 % of control; under setting [3], 90 % of control and 92 % of control.
For `C[N+](C)(C)c1ncnc2nc[nH]c12`, the T/C is 92 % of control under setting [4] and 96 % of control (endpoint: survival time, mean or median, dose: 30.0 mg/kg/injection, schedule: Q01DX010 (ip), vehicle: saline).
Regarding `CCCSc1ncnc2nc[nH]c12`, the T/C was 95 % of control under setting [5] and 95 % of control (endpoint: survival time, mean or median, dose: 250.0 mg/kg/injection, schedule: Q01DX010 (ip), vehicle: saline).
Consider `[I][Hg][CH2]C1COC([CH2][Hg][I])CO1` (stereo not given), for which the T/C (endpoint: survival time, mean or median, dose: 1.56 mg/kg/injection, schedule: Q01DX010 (ip), vehicle: saline) is 93 % of control and the T/C under setting [6] was 100 % of control.
As to `CO[C@H](C(=O)[C@@H](O)[C@@H](C)O)[C@@H]1Cc2cc3cc(OC4CC(OC5CC(O)C(O)C(C)O5)C(O)C(C)O4)c(C)c(O)c3c(O)c2C(=O)[C@H]1OC1CC(OC2CC(OC3CC(C)(O)C(O)C(C)O3)C(O)C(C)O2)C(O)C(C)O1` (stereo not given in full), the T/C was 111 % of control under setting [7], 123 % of control under setting [8], 300 % of control under setting [9] and 188 % of control under setting [10].
For the molecule `O=C(O)c1[nH]c(=O)[nH]c(=O)c1F`, the T/C is 111 % of control under setting [11]; 95 % of control and 107 % of control under setting [12]; 92 % of control and 103 % of control under setting [13]; 96 % of control under setting [14].
Consider `COc1cccc2c1C(=O)c1c(O)c3c(c(O)c1C2=O)C[C@@](O)(C(C)=O)C[C@@H]3OC1CC(N)C(O)C(C)O1` (stereo not given in full), for which the T/C is 92 % of control under setting [7]; 111 % of control under setting [8]; 119 % of control under setting [15]; 300 % of control under setting [9]; 173 % of control under setting [10].
Turning to `CC(=O)O[C@]1(C(C)=O)CC[C@H]2[C@@H]3C[C@H](C)C4=CC(=O)C=C[C@]4(C)[C@@]3(F)[C@@H](O)C[C@@]21C`, the T/C by setting is: (endpoint: survival time, mean or median, dose: 6.25 mg/kg/injection, schedule: Q01DX010 (sc), vehicle: steriod suspending solution) 100 % of control; (endpoint: survival time, mean or median, dose: 12.5 mg/kg/injection, schedule: Q01DX010 (sc), vehicle: steriod suspending solution) 96 % of control; (endpoint: survival time, mean or median, dose: 25.0 mg/kg/injection, schedule: Q01DX010 (sc), vehicle: steriod suspending solution) 92 % of control; (endpoint: survival time, mean or median, dose: 50.0 mg/kg/injection, schedule: Q01DX010 (sc), vehicle: steriod suspending solution) 92 % of control.
For `CC1CN1P(=S)(N1CC1C)N1CC1C` (stereo not given), the T/C by setting is: under setting [11], 103 % of control; under setting [12], 100 % of control and 103 % of control; under setting [13], 92 % of control and 107 % of control; under setting [14], 100 % of control and 103 % of control; under setting [16], 107 % of control.
`Nc1ncnc2c1ccn2C1OC(CO)C(O)C1O` (stereo not given): the T/C under setting [8] was 90 % of control.
As for `Nc1nc2n[nH]nc2c(=O)[nH]1`, the T/C is, setting by setting: (endpoint: survival time, mean or median, dose: 25.0 mg/kg/injection, schedule: Q01DX010 (ip), vehicle: alkali diluted with saline) 109 % of control; (endpoint: survival time, mean or median, dose: 50.0 mg/kg/injection, schedule: Q01DX010 (ip), vehicle: alkali diluted with saline) 115 % of control and 118 % of control; (endpoint: survival time, mean or median, dose: 100.0 mg/kg/injection, schedule: Q01DX010 (ip), vehicle: alkali diluted with saline) 120 % of control; (endpoint: survival time, mean or median, dose: 200.0 mg/kg/injection, schedule: Q01DX010 (ip), vehicle: alkali diluted with saline) 100 % of control.
Regarding `Nc1ncnc2c1ncn2C1OC(COP(=O)(O)O)C(O)C1O` (stereo not given), the T/C reads like this: (endpoint: median survival time, dose: 18.3 mg/kg/injection, schedule: Q01DX003 (ip), vehicle: saline) 100 % of control; (endpoint: median survival time, dose: 18.3 mg/kg/injection, schedule: Q12HX006 (ip), vehicle: saline) 109 % of control; (endpoint: median survival time, dose: 36.6 mg/kg/injection, schedule: Q01DX003 (ip), vehicle: saline) 95 % of control; (endpoint: median survival time, dose: 36.6 mg/kg/injection, schedule: Q12HX006 (ip), vehicle: saline) 111 % of control; (endpoint: median survival time, dose: 73.2 mg/kg/injection, schedule: Q01DX003 (ip), vehicle: saline) 90 % of control; (endpoint: median survival time, dose: 73.3 mg/kg/injection, schedule: Q12HX006 (ip), vehicle: saline) 104 % of control.
As for `CN(C)[C@@H]1C(=O)C(C(N)=O)=C(O)[C@@]2(O)C(=O)C3=C(O)c4c(O)cccc4C[C@H]3C[C@@H]12`, the T/C reads like this: (endpoint: survival time, mean or median, dose: 3.75 mg/kg/injection, schedule: Q01DX010 (ip), vehicle: saline) 93 % of control; (endpoint: survival time, mean or median, dose: 7.5 mg/kg/injection, schedule: Q01DX010 (ip), vehicle: saline) 90 % of control; under setting [4], 90 % of control.
With `CC(=O)NC1=C(N2CC2)C(=O)C(NC(C)=O)=C(N2CC2)C1=O`, the T/C by setting is: under setting [7], 117 % of control; under setting [8], 92 % of control; under setting [15], 103 % of control; (endpoint: survival time, mean or median, dose: 63.0 micrograms/kg/injection, schedule: Q01DX010 (ip), vehicle: saline) 170 % of control; (endpoint: survival time, mean or median, dose: 125.0 micrograms/kg/injection, schedule: Q01DX010 (ip), vehicle: saline) 204 % of control; (endpoint: survival time, mean or median, dose: 250.0 micrograms/kg/injection, schedule: Q01DX010 (ip), vehicle: saline) 114 % of control.
As for `CCN(CC)CCCC(C)Nc1c2ccc(Cl)cc2nc2ccc(OC)cc12` (stereo not given), the T/C is, setting by setting: under setting [6], 90 % of control; (endpoint: survival time, mean or median, dose: 6.25 mg/kg/injection, schedule: Q01DX010 (ip), vehicle: saline) 90 % of control; under setting [17], 100 % of control; under setting [18], 112 % of control.
On to `C=CC(CN1CC1)OC(C)=O` (stereo not given), for which the T/C by setting is: under setting [10], 107 % of control; under setting [1], 123 % of control.
As for `Cn1cnc([N+](=O)[O-])c1Sc1ncnc2nc[nH]c12`, the T/C is, setting by setting: under setting [14], 86 % of control; under setting [16], 93 % of control; under setting [19], 86 % of control; (endpoint: survival time, mean or median, dose: 80.0 mg/kg/injection, schedule: Q01DX010 (ip), vehicle: saline) 86 % of control.
Take `O=c1[nH]c(=O)n(C2CC(O)C(CO)O2)cc1C(F)(F)F` (stereo not given): the T/C (endpoint: survival time, mean or median, dose: 31.3 mg/kg/injection, schedule: Q01DX010 (ip), vehicle: saline) is 119 % of control; the T/C (endpoint: survival time, mean or median, dose: 62.5 mg/kg/injection, schedule: Q01DX010 (ip), vehicle: saline) was 119 % of control; the T/C under setting [5] is 100 % of control.
For the molecule `O=c1[nH]c(=O)n(C2CC(O)C(CO)O2)cc1F` (stereo not given), the T/C under setting [13] was 115 % of control and 303 % of control; the T/C under setting [14] is 100 % of control and 115 % of control; the T/C under setting [16] was 107 % of control and 229 % of control; the T/C under setting [19] is 115 % of control and 212 % of control.
As to `CCN(CC)C(=S)S`, the T/C was 93 % of control under setting [5] and 96 % of control (endpoint: survival time, mean or median, dose: 500.0 mg/kg/injection, schedule: Q01DX010 (ip), vehicle: saline).
For the molecule `CN(C)CC(=O)c1ccc(O)c(O)c1`, the T/C (endpoint: survival time, mean or median, dose: 300.0 mg/kg/injection, schedule: Q01DX010 (ip), vehicle: saline) was 180 % of control and the T/C (endpoint: survival time, mean or median, dose: 675.0 mg/kg/injection, schedule: Q01DX010 (ip), vehicle: saline) is 106 % of control.
For `CSc1ncnc2nc[nH]c12`, the T/C by setting is: under setting [17], 100 % of control; under setting [18], 93 % of control and 100 % of control; (endpoint: survival time, mean or median, dose: 100.0 mg/kg/injection, schedule: Q01DX010 (ip), vehicle: saline) 93 % of control and 100 % of control; (endpoint: survival time, mean or median, dose: 200.0 mg/kg/injection, schedule: Q01DX010 (ip), vehicle: saline) 93 % of control and 103 % of control.
Consider `CN1CC[C@]23c4c5ccc(O)c4O[C@H]2C(=O)CC[C@H]3[C@H]1C5`, for which the T/C is, setting by setting: under setting [1], 103 % of control; under setting [2], 100 % of control; under setting [3], 103 % of control; (endpoint: survival time, mean or median, dose: 32.0 mg/kg/injection, schedule: Q01DX010 (ip), vehicle: saline) 90 % of control and 100 % of control.
